In patent US20240279338A1, “Combination Treatment of Cancer” (Ares Trading S.A., priority 2021, published 2024):

Assays:
[1] = system: 4T1 cells; experiment: CD73hi adenosine-rich 4T1 syngeneic tumor model, tumor growth; format: in vivo; details: 4T1, female BALB/c mice; Day 13 post treatment initiation; Compound A 300 mg/kg po bid; bintrafusp alfa 24.6 mg/kg iv days 0, 3, 6
Description: (§1) Female BALB/c mice were inoculated with 5×10^4 4T1 cells into the right mammary fat pad and were treated with Compound A (300 mg/kg po, bid), bintrafusp alfa (24.6 mg/kg iv, days 0, 3, 6), Compound A+bintrafusp alfa, when average tumor volume reached approximately 60 mm^3. Vehicle (po, bid) and isotype control antibody injections (20 mg/kg iv, days 0, 3, 6) were used as controls. (A) Average tumor volumes with SEM, and (B) individual tumor volumes are presented. Tumor volume data were analyzed using two-way ANOVA followed by Tukey's multiple comparison test.
(§2) To determine whether combined treatment with the dual A2A/A2B receptor inhibitor “Compound A” ((S)-7-Oxa-2-aza-spiro[4.5]decane-2-carboxylic acid [7-(3,6-dihydro-2H-pyran-4-yl)-4-methoxy-thiazolo[4,5-c]pyridin-2-yl]-amide) and bintrafusp alfa can inhibit tumor growth in either CD73^hi or CD73^low models, tumor growth was monitored in […] syngeneic tumor models. Animals were inoculated with either CD73^hi tumor cells (4T1, E0771, or EMT6) or with CD73^low MC38, H22 or MBT2 tumor cells. For all tumor models, animals were treated with either 1) vehicle and isotype, 2) Compound A and isotype, 3) vehicle and bintrafusp alfa, or 4) Compound A and bintrafusp alfa. […]

[2] = system: EMT6 cells; experiment: CD73hi EMT6 syngeneic tumor model, tumor growth; format: in vivo, mice; details: Day 10 post treatment initiation, Compound A 300 mg/kg po BID alone
Description: as §1, with “2.5×10^5 EMT6” for “5×10^4 4T1”, “BID),” for “bid),”, “BID)” for “bid)”
as §2

[3] = system: MC38 cells; experiment: CD73low MC38 syngeneic tumor model, tumor growth; format: in vivo, mice
Description: Female C57BL/6 mice were inoculated with 1×10^6 MC38 cells in the right lower flank and were treated with Compound A (300 mg/kg po, BID), bintrafusp alfa (24.6 mg/kg iv, days 0, 3, 6), Compound A+bintrafusp alfa, when average tumor volume reached approximately 70 mm^3. Vehicle (po, BID) and isotype control antibody injections (20 mg/kg iv, days 0, 3, 6) were used as controls. (A) Average tumor volumes with SEM, and (B) individual tumor volumes are presented. Tumor volume data were analyzed using two-way ANOVA followed by Tukey's multiple comparison test.
as §2

[4] = system: ADORA2A (A2A); experiment: RNAseq gene expression in MC38 tumors; format: in vivo, mice; details: bintrafusp alfa 24.6 mg/kg iv, Day 6 post treatment, vs isotype
Description: (§3) FIG. 4: Bintrafusp alfa increases expression of A2B in CD73h adenosine-rich 4T1 tumor model, but not in CD73^low adenosine-low MC38 tumor model. For the 4T1 tumor model, female BALB/c mice were inoculated with 2×10^5 4T1 cells into the right mammary fat pad. For the MC38 tumor model, female C57BL/6 mice were inoculated subcutaneously in the right flank with MC38 cells (1×10^6). Animals in both studies were randomized into the groups and treatments started when the average tumor size reached approximately 100-150 mm^3. For both models, there were 15 mice in each group. The animals were treated with isotype control (20 mg/kg, iv) or bintrafusp alfa (24.6 mg/kg, iv) on days 0, 1, and 2. Tumors were harvested on Day 6 post treatment start, flash frozen, and used for RNASeq analysis. Gene expression levels of (A) NT5E, (B) ADORA2A (A2A), and (C) ADORA2B (A2B) are presented as mean±SEM. P-values were calculated using two-way ANOVA.
(§4) To determine whether bintrafusp alfa treatment modulates expression of A2A or A2B receptors or NT5E (gene encoding CD73), mice with established 4T1 and MC38 tumors were treated with 20 mg/kg isotype antibody or 24.6 mg/kg bintrafusp alfa.

[5] = system: NT5E (CD73); experiment: RNAseq gene expression in MC38 tumors; format: in vivo, mice; details: bintrafusp alfa 24.6 mg/kg iv, Day 6 post treatment, vs isotype
Description: as §3, §4

Row | Compound | tumor growth inhibition, T/C [1] | tumor growth inhibition [2] | tumor growth inhibition ([3]; MC38, Compound A 300 mg/kg po BID monotherapy) | tumor growth inhibition, T/C ([3]; MC38, female C57BL/6 mice, Day 22 post treatment initiation, Compound A 300 mg/kg po BID, bintrafusp alfa 24.6 mg/kg iv days 0, 3, 6) | expression of A2A [4] | expression of NT5E (CD73) [5]
1 | COc1ncc(C2=CCOCC2)c2sc(NC(=O)N3CC[C@@]4(CCCOC4)C3)nc12 [Compound A, (S)-7-Oxa-2-aza-spiro[4.5]decane-2-carboxylic acid [7-(3,6-dihydro-2H-pyran-4-yl)-4-methoxy-thiazolo[4,5-c]pyridin-2-yl]-amide] | 68.5% | did not show tumor growth inhibition | no tumor growth inhibition observed |  |  | 
2 | bintrafusp alfa: anti-PD-L1:TGFβRII fusion protein, CAS 1918149-01-5; human IgG1 antibody against PD-L1 fused to extracellular domain of human TGF-β receptor II | 86.2% |  |  | 42.1% | no changes | no changes
